The values below come from patent US12390472B2 (SUZHOU SINOVENT PHARMACEUTICALS CO., LTD., priority 2018, dated 2025).

One assay addresses EZH2 enzyme complex (Homo sapiens (Human), UniProt Q15910). The assay can be described thus: Test on EZH2 inhibitory activity (TR-FRET). Type of assay: biochemical. Conditions: EZH2 enzyme complex 25 ng/uL, histone H3 peptide 4 uM, SAM 2 uM, 300 min; read-out: IC50 of EZH2 inhibition. (TR-FRET usually uses a lanthanide donor and a delayed reading to cut background.)
The subject of a further assay is WSU-DLCL2. The assay can be described thus: Methylated lysine of histone-H3 (H3K27Me3) detection by ELISA, WSU-DLCL2 cells. In kind it is cell-based. Particulars: WSU-DLCL2, 7 days treatment, H3K27Me3 normalized to total histone-3, read-out: IC50 of cell methylation, WSU-DLCL2. As for the experimental part:
(§1) The operations for adherent cells and suspension cells cultured in 96-well plates were slightly different after they had been treated with compound (4-fold dilution 20 uM-0.009 nM, 3 duplicate wells) for 7 days, and the operations are summarized as follows: For adherent cells, after discarding the medium, 75 uL of 1-fold hypotonic lysis buffer (10 mM Tris-HCl, pH 7.5, containing halt protease inhibitor and PMSF with a final concentration of 1 mM) was added; the plate was frozen at −80° C. for at least 1 h or overnight; once the plate was taken away from the −80° C. environment, 120 uL (to a final volume of about 195 uL) of 1-fold hypotonic lysis buffer (containing protease inhibitor) was added, and the plate was thawed at room temperature and shaken for 2 min for mixing; and 8 uL (to a final volume of about 203 uL) of 2.5 M NaCl was added to each well to a final NaCl concentration of 100 mM and then the plate was shaken for an additional 2 min for mixing.
(§2) For suspension cells (final volume of medium was 100 uL/well), 25 uL of 5-fold hypotonic lysis buffer (50 mM Tris-HCl, pH 7.5, containing halt protease inhibitor and PMSF with a final concentration of 1 mM) was added, and the plate was frozen at −80° C. for at least 1 h or overnight. Once the plate was taken away from the −80° C. environment, 20 uL of 0.625 M NaCl was added to each well to a final NaCl concentration of about 100 mM, and the mixture was mixed well.
(§3) 75 uL or 100 uL of sample (with duplicate wells provided) was added to two 96-well ELISA plates (ThermoFisher Scientific; Immulon 4HBX 3885) and the plates were coated with total protein lysate and incubated overnight at 4° C. 50 uL of lysate was retained for protein quantitation if necessary. The sealing of the plates must be ensured. The plates were washed twice with 300 uL of 1×PBST (PBS containing 0.05% Tween 20) per well. Each well was blocked with 300 uL of dilution (PBS+2% BSA+0.05% Tween 20), incubated for 2 h at room temperature, and washed twice with 1×PBST. Primary antibodies were diluted with a dilution solution containing 1% BSA+0.05% Tween 20. 75-100 uL of anti-H3K27Me3 antibody (CST; 9733; 50% glycerol stock, 1:1,000) or anti-total histone-3 antibody (Abcam; ab1791; 50% glycerol stock, 1:10,000) was added to each well. The plates were incubated for 90 min at room temperature or incubated overnight at 4° C. The plates were washed three times with 1×PBST. 75-100 uL of anti-Rb-IgG-HRP secondary antibody (Cell Signaling Technology; 7074) was added per well, 1:2000 diluted secondary antibody for anti-H3K 27Me3 plate and 1:6000 diluted secondary antibody for anti-histone total histone-3 plate. The plates were incubated at room temperature for 90 min. The plate assayed with anti-histone-3 antibody was used to normalize the data for the corresponding plate assayed with anti-H3K 27me3. The plates must be washed at least three times with 1×PBST after primary or secondary antibody incubation. The plates were assayed by adding 75-100 uL of 3,3′,5,5′-tetramethylbenzidine substrate (CST or ThermoFisher Scientific; TMBS) per well and incubated away from light for 30 min at 37° C. The reaction was terminated by adding 100 uL of 0.5 M H2SO4 per well. The absorbance was read at 450 nm. Curve fitting was performed using Graph Pad program.

The subject of another assay is Pfeiffer. Briefly: Methylated lysine of histone-H3 (H3K27Me3) detection by ELISA, Pfeiffer cells. Particulars: 7 days treatment, H3K27Me3 normalized to total histone-3, read-out: IC50 of cell methylation, Pfeiffer. In kind it is cell-based, human. As for the experimental part:
as §1, §2, §3
On the technique in general: In an ELISA, binding on a coated surface is turned into a signal by an enzyme label.

Read-outs that look alike come from different tables or passages of the source.

Sequence of EZH2 enzyme complex (Q15910 whole entry): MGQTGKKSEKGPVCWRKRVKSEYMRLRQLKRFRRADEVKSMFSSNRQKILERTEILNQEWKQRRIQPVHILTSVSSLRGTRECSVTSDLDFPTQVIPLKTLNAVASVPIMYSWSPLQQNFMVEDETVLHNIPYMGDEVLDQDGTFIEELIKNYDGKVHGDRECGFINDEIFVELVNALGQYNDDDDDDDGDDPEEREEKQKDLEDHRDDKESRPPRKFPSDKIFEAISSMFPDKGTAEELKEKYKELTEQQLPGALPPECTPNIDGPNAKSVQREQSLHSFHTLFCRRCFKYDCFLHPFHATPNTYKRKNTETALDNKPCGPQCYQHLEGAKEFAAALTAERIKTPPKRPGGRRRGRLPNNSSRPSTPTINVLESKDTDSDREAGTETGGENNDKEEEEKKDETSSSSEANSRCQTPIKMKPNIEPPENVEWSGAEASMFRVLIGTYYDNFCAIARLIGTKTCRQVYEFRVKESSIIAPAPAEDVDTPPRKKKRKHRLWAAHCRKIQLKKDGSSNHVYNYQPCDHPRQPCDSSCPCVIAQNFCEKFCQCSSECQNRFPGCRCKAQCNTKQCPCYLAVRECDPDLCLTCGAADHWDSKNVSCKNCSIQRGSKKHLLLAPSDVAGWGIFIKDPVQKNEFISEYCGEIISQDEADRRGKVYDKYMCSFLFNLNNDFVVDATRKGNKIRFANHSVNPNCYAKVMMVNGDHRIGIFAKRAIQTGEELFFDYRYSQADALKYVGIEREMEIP
Sequence of EZH2 enzyme complex (O75530 whole entry partner): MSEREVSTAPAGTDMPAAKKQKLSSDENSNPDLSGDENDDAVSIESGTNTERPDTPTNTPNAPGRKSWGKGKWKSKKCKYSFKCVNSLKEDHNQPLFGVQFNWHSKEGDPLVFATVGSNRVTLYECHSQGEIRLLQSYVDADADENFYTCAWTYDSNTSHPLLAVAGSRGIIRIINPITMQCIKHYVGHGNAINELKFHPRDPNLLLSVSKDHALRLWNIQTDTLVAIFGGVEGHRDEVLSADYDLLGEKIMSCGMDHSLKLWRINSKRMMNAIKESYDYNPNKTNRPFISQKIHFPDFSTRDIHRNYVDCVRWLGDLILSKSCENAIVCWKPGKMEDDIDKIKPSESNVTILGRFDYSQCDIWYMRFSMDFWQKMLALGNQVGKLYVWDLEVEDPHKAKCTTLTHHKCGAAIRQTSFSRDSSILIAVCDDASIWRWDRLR
Sequence of EZH2 enzyme complex (Q15022 whole entry partner): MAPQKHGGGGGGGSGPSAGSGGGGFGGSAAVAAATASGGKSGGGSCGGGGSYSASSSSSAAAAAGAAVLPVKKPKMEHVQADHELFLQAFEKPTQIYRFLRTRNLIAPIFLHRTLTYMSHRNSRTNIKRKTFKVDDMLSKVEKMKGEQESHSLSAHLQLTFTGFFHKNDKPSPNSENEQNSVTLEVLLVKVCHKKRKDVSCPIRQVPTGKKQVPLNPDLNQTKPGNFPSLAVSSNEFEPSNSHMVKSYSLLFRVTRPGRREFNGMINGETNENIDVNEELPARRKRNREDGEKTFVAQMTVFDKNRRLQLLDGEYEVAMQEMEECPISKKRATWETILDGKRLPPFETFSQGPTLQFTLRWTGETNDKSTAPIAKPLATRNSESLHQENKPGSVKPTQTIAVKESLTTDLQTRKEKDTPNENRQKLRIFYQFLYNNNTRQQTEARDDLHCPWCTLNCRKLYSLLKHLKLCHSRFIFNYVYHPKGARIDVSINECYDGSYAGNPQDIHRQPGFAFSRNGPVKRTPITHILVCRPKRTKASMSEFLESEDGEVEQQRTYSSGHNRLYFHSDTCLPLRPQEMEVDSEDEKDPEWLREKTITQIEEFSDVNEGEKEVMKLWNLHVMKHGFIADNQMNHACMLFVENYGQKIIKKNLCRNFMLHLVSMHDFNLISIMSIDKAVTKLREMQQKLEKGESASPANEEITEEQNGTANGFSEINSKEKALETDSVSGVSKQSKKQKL
Procedure for EZH2 enzyme complex: • EZH2 enzyme complex: 25 ng/uL • Histone H3 peptide substrate: 4 uM • SAM: 2 uM • Reaction time: 300 min Procedures • 1. Each compound disclosed herein was diluted with 1×HMT buffer and transferred to a 384-well assay plate at 3 uL per well; • 2. The EZH2 enzyme solution was prepared with 1×HMT buffer and transferred to the 384-well assay plate at 2 uL per well; • 3. The above assay plate was incubated for 30 min; • 4. A mixture solution of SAM and histone H3 peptide substrate at 2-fold concentration was prepared with 4×HMT buffer; • 5. 5 uL of the mixture solution of SAM and substrate was added to each well of the assay plate to react at room temperature, and the assay plate was sealed with plastic; • 6. After incubation for 5 h, 10 uL of TR-FRET detection buffer containing Tb-labeled antibody and dye-labeled receptor was added to each well of the assay plate; • 7. After incubation for 1 h at room temperature, the assay plate was detected; • 8.

As for `CCN(c1cc(C2CC2CN2CCOCC2)cc(C(=O)NCc2c(C)cc(C)[nH]c2=O)c1C)C1CCOCC1` (stereo not drawn) [Example 72, N-((4,6-dimethyl-2-oxo-1,2-dihydropyridin-3-yl)methyl)-3-(ethyl(tetrahydro-2H-pyran-4-yl)amino)-2-methyl-5-(2-(morpholinylmethyl)cyclopropyl)benzamide], the figures for the IC50 on EZH2 enzyme complex, in the assay on WSU-DLCL2 and in the assay with Pfeiffer were 10 to 100 nM, 50 to 500 nM and less than 50 nM, respectively.

As to `CCN(c1cc(O[C@H]2C[C@@H](N3CCN(S(C)(=O)=O)CC3)C2)cc(C(=O)NCc2c(C)cc(C)[nH]c2=O)c1C)C1CCOCC1` [Example 27, N-((4,6-dimethyl-2-oxo-1,2-dihydropyridin-3-yl)methyl)-3-(ethyl(tetrahydro-2H-pyran-4-yl)amino)-2-methyl-5-(cis-3-(4-(methylsulfonyl)piperazin-1-yl)cyclobutoxy)benzamide], the IC50 – broadly, the midpoint of a concentration-inhibition curve – is less than 10 nM at EZH2 enzyme complex; less than 50 nM with WSU-DLCL2 (Homo sapiens, WSUDLCL2, 168 h); less than 50 nM with Pfeiffer (Homo sapiens, 168 h).

Consider `CCN(c1cc(SC2CCC2)cc(C(=O)NCc2c(C)cc(C)[nH]c2=O)c1C)C1CCOCC1` [Example 8, 5-(cyclobutylthio)-N-((4,6-dimethyl-2-oxo-1,2-dihydropyridin-3-yl)methyl)-3-(ethyl(tetrahydro-2H-pyran-4-yl)amino)-2-methylbenzamide], for which the IC50 is 10 to 100 nM on EZH2 enzyme complex; greater than 1000 nM in the assay with WSU-DLCL2 (Homo sapiens, WSUDLCL2, 168 h); 50 to 500 nM in the assay with Pfeiffer (Homo sapiens, 168 h).

`CCN(c1cc(O[C@H]2C[C@H](CN3CCOCC3)C2)cc(C(=O)NCc2c(C)cc(C)[nH]c2=O)c1Cl)C1CCOCC1` [Example 29, 2-chloro-N-((4,6-dimethyl-2-oxo-1,2-dihydropyridin-3-yl)methyl)-3-(ethyl(tetrahydro-2H-pyran-4-yl)amino)-5-(trans-3-(morpholinylmethyl)cyclobutoxy)benzamide]: the IC50 at EZH2 enzyme complex was 10 to 100 nM; with WSU-DLCL2 (Homo sapiens, WSUDLCL2, 168 h), 50 to 500 nM; with Pfeiffer (Homo sapiens, 168 h), less than 50 nM.

`CCN(c1cc(O[C@H]2C[C@H](CN3C[C@@H](C)O[C@@H](C)C3)C2)cc(C(=O)NCc2c(C)cc(C)[nH]c2=O)c1Cl)C1CCOCC1` [Example 53, 2-chloro-N-((4,6-dimethyl-2-oxo-1,2-dihydropyridin-3-yl)methyl)-5-(trans-3-((cis-2,6-dimethylmorpholinyl)methyl)cyclobutoxy)-3-(ethyl(tetrahydro-2H-pyran-4-yl)amino)benzamide]: the IC50 on EZH2 enzyme complex is 10 to 100 nM; with WSU-DLCL2, 50 to 500 nM; in the assay on Pfeiffer, 500 to 1000 nM.

In the case of `CCN(c1cc(OC2CC(F)(F)C2)cc(C(=O)NCc2c(C)cc(C)[nH]c2=O)c1C)C1CCOCC1` [Example 3, 5-(3,3-difluorocyclobutoxy)-N-((4,6-dimethyl-2-oxo-1,2-dihydropyridin-3-yl)methyl)-3-(ethyl(tetrahydro-2H-pyran-4-yl)amino)-2-methylbenzamide], the IC50 at EZH2 enzyme complex was 10 to 100 nM; with WSU-DLCL2 (Homo sapiens, WSUDLCL2, 168 h), 50 to 500 nM; with Pfeiffer (Homo sapiens, 168 h) it was less than 50 nM.

Turning to `CCN(c1cc(C2CC2CN2CCN(CC(C)(C)C)CC2)cc(C(=O)NCc2c(C)cc(C)[nH]c2=O)c1C)C1CCOCC1` (stereo not drawn) [Example 76, N-((4,6-dimethyl-2-oxo-1,2-dihydropyridin-3-yl)methyl)-3-(ethyl(tetrahydro-2H-pyran-4-yl)amino)-2-methyl-5-(2-((4-neopentylpiperazin-1-yl)methyl)cyclopropyl)benzamide], the IC50 was 10 to 100 nM at EZH2 enzyme complex; 50 to 500 nM with WSU-DLCL2 (Homo sapiens, WSUDLCL2, 168 h); less than 50 nM with Pfeiffer (Homo sapiens, 168 h).

In the case of `CCN(c1cc(OC2CCC2)cc(C(=O)NCc2c(C)cc(C)[nH]c2=O)c1Cl)C1CCOCC1` [Example 11, 2-chloro-5-cyclobutoxy-N-((4,6-dimethyl-2-oxo-1,2-dihydropyridin-3-yl)methyl)-3-(ethyl(tetrahydro-2H-pyran-4-yl)amino) benzamide], the IC50 on EZH2 enzyme complex was in the range of 10 to 100 nM; with WSU-DLCL2 (Homo sapiens, WSUDLCL2, 168 h), 50 to 500 nM; with Pfeiffer (Homo sapiens, 168 h), 50 to 500 nM.

For `CCN(c1cc(S(=O)(=O)C2CCC2)cc(C(=O)NCc2c(C)cc(C)[nH]c2=O)c1C)C1CCOCC1` [Example 10, 5-(cyclobutylsulfonyl)-N-((4,6-dimethyl-2-oxo-1,2-dihydropyridin-3-yl)methyl)-3-(ethyl(tetrahydro-2H-pyran-4-yl)amino)-2-methylbenzamide], the IC50 on EZH2 enzyme complex was 100 to 1000 nM; with WSU-DLCL2 (Homo sapiens, WSUDLCL2, 168 h) it was greater than 1000 nM; in the assay with Pfeiffer (Homo sapiens, 168 h), 500 to 1000 nM.

As for `CCN(c1cc(O[C@H]2C[C@H](CN3C[C@@H](C)O[C@@H](C)C3)C2)cc(C(=O)NCc2c(C)cc(C)[nH]c2=O)c1Cl)C1CCOCC1` [Example 30, 2-chloro-N-((4,6-dimethyl-2-oxo-1,2-dihydropyridin-3-yl)methyl)-5-(trans-3-((cis-2,6-dimethylmorpholinyl)methyl)cyclobutoxy)-3-(ethyl(tetrahydro-2H-pyran-4-yl)amino)benzamide], the half-maximal inhibitory concentration (IC50) at EZH2 enzyme complex is 10 to 100 nM; in the assay on WSU-DLCL2 (Homo sapiens, WSUDLCL2, 168 h) it was 50 to 500 nM; in the assay with Pfeiffer, less than 50 nM.

`CCN(c1cc(O[C@H]2C[C@H](N3CCN(S(C)(=O)=O)CC3)C2)cc(C(=O)NCc2c(C)cc(C)[nH]c2=O)c1C)C1CCOCC1` [Example 28, N-((4,6-dimethyl-2-oxo-1,2-dihydropyridin-3-yl)methyl)-3-(ethyl(tetrahydro-2H-pyran-4-yl)amino)-2-methyl-5-(trans-3-(4-(methylsulfonyl)piperazin-1-yl)cyclobutoxy)benzamide]: the IC50 on EZH2 enzyme complex is 10 to 100 nM; in the assay on WSU-DLCL2 (Homo sapiens, WSUDLCL2, 168 h), less than 50 nM; with Pfeiffer (Homo sapiens, 168 h), less than 50 nM.

Turning to `CCN(c1cc(OC2CC(C(=O)N3CCOCC3)C2)cc(C(=O)NCc2c(C)cc(C)[nH]c2=O)c1C)C1CCOCC1` (stereo not drawn) [Example 13, N-((4,6-dimethyl-2-oxo-1,2-dihydropyridin-3-yl)methyl)-3-(ethyl(tetrahydro-2H-pyran-4-yl)amino)-2-methyl-5-(3-(morpholine-4-carbonyl)cyclobutoxy)benzamide], the 50% inhibitory concentration (IC50) at EZH2 enzyme complex was 10 to 100 nM; in the assay with WSU-DLCL2 (Homo sapiens, WSUDLCL2, 168 h) it was 50 to 500 nM; with Pfeiffer (Homo sapiens, 168 h) it was less than 50 nM.

Turning to `Cc1cc(C)c(CNC(=O)c2cc(O[C@H]3C[C@H](N4C[C@@H](C)O[C@@H](C)C4)C3)cc(NC3CCOCC3)c2C)c(=O)[nH]1` [Example 57, N-((4,6-dimethyl-2-oxo-1,2-dihydropyridin-3-yl)methyl)-5-(trans-3-(cis-2,6-dimethylmorpholino)cyclobutoxy)-2-methyl-3-((tetrahydro-2H-pyran-4-yl)amino)benzamide], the IC50 is greater than 1000 nM at EZH2 enzyme complex; greater than 1000 nM with WSU-DLCL2 (Homo sapiens, WSUDLCL2, 168 h); greater than 1000 nM in the assay on Pfeiffer (Homo sapiens, 168 h).

Take `CCN(c1cc(O[C@H]2C[C@H](N3CCN(C(C)C)CC3)C2)cc(C(=O)NCc2c(C)cc(C)[nH]c2=O)c1C)C1CCOCC1` [Example 22, N-((4,6-dimethyl-2-oxo-1,2-dihydropyridin-3-yl)methyl)-3-(ethyl(tetrahydro-2H-pyran-4-yl)amino)-5-(trans-3-(4-isopropylpiperazin-1-yl)cyclobutoxy)-2-methylbenzamide]: the half-inhibitory concentration (IC50) is 10 to 100 nM on EZH2 enzyme complex; 50 to 500 nM in the assay with WSU-DLCL2 (Homo sapiens, WSUDLCL2, 168 h); less than 50 nM with Pfeiffer (Homo sapiens, 168 h).

Regarding `CCN(c1cc(O[C@H]2C[C@H](CN3CCOCC3)C2)cc(C(=O)NCc2c(C)cc(C)[nH]c2=O)c1C)C1CCOCC1` [Example 7, N-((4,6-dimethyl-2-oxo-1,2-dihydropyridin-3-yl)methyl)-3-(ethyl(tetrahydro-2H-pyran-4-yl)amino)-2-methyl-5-(trans-3-(morpholinylmethyl)cyclobutoxy)benzamide], the IC50 on EZH2 enzyme complex is 10 to 100 nM; in the assay on WSU-DLCL2 (Homo sapiens, WSUDLCL2, 168 h), 50 to 500 nM; in the assay with Pfeiffer (Homo sapiens, 168 h), less than 50 nM.
